Source: the NIST ThermoML archive (doi:10.1021/je101317k)

Columns and labels:
[1] = refractive index (other wavelength) (dimensionless); details: 101 kPa, Liquid, Wavelength=632.8 nm, Standard Abbe refractometry
[2] = refractive index (other wavelength) (dimensionless); xn = mol fraction of the nth substance listed; details: 101 kPa, Liquid, Wavelength=632.8 nm, Standard Abbe refractometry

CCCCCCCCC [nonane]
[1]
Details | refractive index
277.15 K | 1.4116
278.19 K | 1.4111
279.2 K | 1.4106
279.71 K | 1.4104
280.28 K | 1.4101
281.69 K | 1.4095

CCCCCCCCCCCC [dodecane] + COC(=O)OC
[2], 299.73 K
Details | refractive index
x2 = 0.103 | 1.414
x2 = 0.204 | 1.4106
x2 = 0.299 | 1.4071
x2 = 0.409 | 1.4028
x2 = 0.512 | 1.3983
x2 = 0.611 | 1.3934
x2 = 0.713 | 1.3875
x2 = 0.791 | 1.3823
x2 = 0.899 | 1.3739

CCCCCCCCC [nonane] + COC(=O)OC
[2], 281.69 K
Details | refractive index
x2 = 0 | 1.4095
x2 = 0.105 | 1.4061
x2 = 0.201 | 1.4031
x2 = 0.305 | 1.3999
x2 = 0.405 | 1.3968
x2 = 0.505 | 1.3936
x2 = 0.596 | 1.3905
x2 = 0.706 | 1.3863
x2 = 0.8 | 1.3822
x2 = 0.888 | 1.3781

COC(=O)OC [dimethyl carbonate]
[1]
Details | refractive index
277.78 K | 1.3747
278.13 K | 1.3745
279.18 K | 1.374
280.25 K | 1.3735
280.74 K | 1.3733
281.69 K | 1.3728
293.19 K | 1.3676
294.27 K | 1.3671
295.3 K | 1.3666
296.34 K | 1.3661
297.38 K | 1.3656
298.4 K | 1.3651
299.48 K | 1.3647

CCCCCCCCCCCC [dodecane]
[1]
Details | refractive index
293.28 K | 1.4203
294.33 K | 1.4198
295.37 K | 1.4194
296.54 K | 1.4189
297.58 K | 1.4184
298.65 K | 1.418
299.72 K | 1.4175

COC(=O)OC [dimethyl carbonate] + CCCCCCCCC
Details | refractive index
[2], 281.69 K, x1 = 1 | 1.3728
